Data: the supplement of paper PMC10132981, “Formate overflow drives toxic folate trapping in MTHFD1 inhibited cancer cells” (Nature Metabolism, 2023)
± gives the standard deviation of the averaged measurements.

Legend:
[1] = test system: SW620; experiment: cell viability relative to vehicle (resazurin, 96 h); higher = more viable
Procedure: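 SW620 WT or MTHFD2-/- cells were treated for 96 h with a compound dilution series (log10 M) in RPMI with normal or dialysed FBS. Viability was read by resazurin and is given as % of vehicle.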

[2] = test system: HCT116; experiment: cell viability relative to lowest-dose well (resazurin, 96 h); higher = more viable; settings: RPMI + 10% FBS
Summary of the method: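 In 384-well plates, 50 µl RPMI with 10% FBS plus a metabolite supplement received 500 HCT116 or 1,000 SW620 cells per well. Dilution series of compounds, taken from 10 mM DMSO stocks, were added and the plates kept 96 h at 37 °C, 5% CO2. Viability, reported as percent of the lowest-dose well across independent replicate cultures, was measured as resazurin-to-resorufin conversion by fluorescence at 595 nm.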

Cc1c(N2CCN(C)[C@@H](C)C2)ccc2c3c(c(=O)oc12)CN(C(=O)c1ccc(NS(C)(=O)=O)c(OC(F)(F)F)c1)CC3
[1]
Settings | cell viability [%]
log10 compound concentration (M): -5, supplement / serum: 50μM Hypoxanthine, base medium: RPMI + dialysed FBS | 59.7 ± 4.3
log10 compound concentration (M): -5, supplement / serum: 50μM Thymidine + 50μM Hypoxanthine, base medium: RPMI + dialysed FBS | 79 ± 23
log10 compound concentration (M): -5, supplement / serum: 50μMThymidine, base medium: RPMI + dialysed FBS | 13 ± 4.2
log10 compound concentration (M): -5, supplement / serum: No metabolite, base medium: RPMI + dialysed FBS | 11 ± 1.3
log10 compound concentration (M): -5, supplement / serum: RPMI + Dialyzed FBS + 50μM Hypoxanthine, base medium: RPMI-1640 | 59.7 ± 4.3
log10 compound concentration (M): -5, supplement / serum: RPMI + Dialyzed FBS, base medium: RPMI-1640 | 11 ± 1.3
log10 compound concentration (M): -5, supplement / serum: RPMI + Normal FBS, base medium: RPMI-1640 | 78.9 ± 37
log10 compound concentration (M): -5.47712, supplement / serum: 50μM Hypoxanthine, base medium: RPMI + dialysed FBS | 73.8 ± 15
log10 compound concentration (M): -5.47712, supplement / serum: 50μM Thymidine + 50μM Hypoxanthine, base medium: RPMI + dialysed FBS | 87.3 ± 20
log10 compound concentration (M): -5.47712, supplement / serum: 50μMThymidine, base medium: RPMI + dialysed FBS | 16.4 ± 0.45
log10 compound concentration (M): -5.47712, supplement / serum: No metabolite, base medium: RPMI + dialysed FBS | 16.8 ± 2.8
log10 compound concentration (M): -5.47712, supplement / serum: RPMI + Dialyzed FBS + 50μM Hypoxanthine, base medium: RPMI-1640 | 73.8 ± 15
log10 compound concentration (M): -5.47712, supplement / serum: RPMI + Dialyzed FBS, base medium: RPMI-1640 | 16.8 ± 2.8
log10 compound concentration (M): -5.47712, supplement / serum: RPMI + Normal FBS, base medium: RPMI-1640 | 59.76 ± 0.29
log10 compound concentration (M): -5.95424, supplement / serum: 50μM Hypoxanthine, base medium: RPMI + dialysed FBS | 79.2 ± 26
log10 compound concentration (M): -5.95424, supplement / serum: 50μM Thymidine + 50μM Hypoxanthine, base medium: RPMI + dialysed FBS | 82.2 ± 17
log10 compound concentration (M): -5.95424, supplement / serum: 50μMThymidine, base medium: RPMI + dialysed FBS | 37.8 ± 3.8
log10 compound concentration (M): -5.95424, supplement / serum: No metabolite, base medium: RPMI + dialysed FBS | 37.9 ± 1.5
log10 compound concentration (M): -5.95424, supplement / serum: RPMI + Dialyzed FBS + 50μM Hypoxanthine, base medium: RPMI-1640 | 79.2 ± 26
log10 compound concentration (M): -5.95424, supplement / serum: RPMI + Dialyzed FBS, base medium: RPMI-1640 | 37.9 ± 1.5
log10 compound concentration (M): -5.95424, supplement / serum: RPMI + Normal FBS, base medium: RPMI-1640 | 66.4 ± 4.6
log10 compound concentration (M): -6.43136, supplement / serum: 50μM Hypoxanthine, base medium: RPMI + dialysed FBS | 78.9 ± 3.7
log10 compound concentration (M): -6.43136, supplement / serum: 50μM Thymidine + 50μM Hypoxanthine, base medium: RPMI + dialysed FBS | 89.1 ± 13
log10 compound concentration (M): -6.43136, supplement / serum: 50μMThymidine, base medium: RPMI + dialysed FBS | 64.5 ± 0.92
log10 compound concentration (M): -6.43136, supplement / serum: No metabolite, base medium: RPMI + dialysed FBS | 67.9 ± 0.74
log10 compound concentration (M): -6.43136, supplement / serum: RPMI + Dialyzed FBS + 50μM Hypoxanthine, base medium: RPMI-1640 | 78.9 ± 3.7
log10 compound concentration (M): -6.43136, supplement / serum: RPMI + Dialyzed FBS, base medium: RPMI-1640 | 67.9 ± 0.74
log10 compound concentration (M): -6.43136, supplement / serum: RPMI + Normal FBS, base medium: RPMI-1640 | 74.7 ± 1.9
log10 compound concentration (M): -6.90849, supplement / serum: 50μM Hypoxanthine, base medium: RPMI + dialysed FBS | 85.8 ± 9.7
log10 compound concentration (M): -6.90849, supplement / serum: 50μM Thymidine + 50μM Hypoxanthine, base medium: RPMI + dialysed FBS | 72.8 ± 5.9
log10 compound concentration (M): -6.90849, supplement / serum: 50μMThymidine, base medium: RPMI + dialysed FBS | 72.2 ± 4.4
log10 compound concentration (M): -6.90849, supplement / serum: No metabolite, base medium: RPMI + dialysed FBS | 84.5 ± 21
log10 compound concentration (M): -6.90849, supplement / serum: RPMI + Dialyzed FBS + 50μM Hypoxanthine, base medium: RPMI-1640 | 85.8 ± 9.7
log10 compound concentration (M): -6.90849, supplement / serum: RPMI + Dialyzed FBS, base medium: RPMI-1640 | 84.5 ± 21
log10 compound concentration (M): -6.90849, supplement / serum: RPMI + Normal FBS, base medium: RPMI-1640 | 76.6 ± 3.5
log10 compound concentration (M): -7.38561, supplement / serum: 50μM Hypoxanthine, base medium: RPMI + dialysed FBS | 68.9 ± 5.7
log10 compound concentration (M): -7.38561, supplement / serum: 50μM Thymidine + 50μM Hypoxanthine, base medium: RPMI + dialysed FBS | 79.5 ± 3.7
log10 compound concentration (M): -7.38561, supplement / serum: 50μMThymidine, base medium: RPMI + dialysed FBS | 65.2 ± 1.4
log10 compound concentration (M): -7.38561, supplement / serum: No metabolite, base medium: RPMI + dialysed FBS | 66.8 ± 1.8
log10 compound concentration (M): -7.38561, supplement / serum: RPMI + Dialyzed FBS + 50μM Hypoxanthine, base medium: RPMI-1640 | 68.9 ± 5.7
log10 compound concentration (M): -7.38561, supplement / serum: RPMI + Dialyzed FBS, base medium: RPMI-1640 | 66.8 ± 1.8
log10 compound concentration (M): -7.38561, supplement / serum: RPMI + Normal FBS, base medium: RPMI-1640 | 75 ± 9.2
log10 compound concentration (M): -7.86273, supplement / serum: 50μM Hypoxanthine, base medium: RPMI + dialysed FBS | 83.7 ± 13
log10 compound concentration (M): -7.86273, supplement / serum: 50μM Thymidine + 50μM Hypoxanthine, base medium: RPMI + dialysed FBS | 83.3 ± 4.1
log10 compound concentration (M): -7.86273, supplement / serum: 50μMThymidine, base medium: RPMI + dialysed FBS | 70.4 ± 4.7
log10 compound concentration (M): -7.86273, supplement / serum: No metabolite, base medium: RPMI + dialysed FBS | 75.1 ± 7.1
log10 compound concentration (M): -7.86273, supplement / serum: RPMI + Dialyzed FBS + 50μM Hypoxanthine, base medium: RPMI-1640 | 83.7 ± 13
log10 compound concentration (M): -7.86273, supplement / serum: RPMI + Dialyzed FBS, base medium: RPMI-1640 | 75.1 ± 7.1
log10 compound concentration (M): -7.86273, supplement / serum: RPMI + Normal FBS, base medium: RPMI-1640 | 73 ± 4.8
log10 compound concentration (M): -8.33985, supplement / serum: 50μM Hypoxanthine, base medium: RPMI + dialysed FBS | 84.3 ± 9
log10 compound concentration (M): -8.33985, supplement / serum: 50μM Thymidine + 50μM Hypoxanthine, base medium: RPMI + dialysed FBS | 76.1 ± 1.6
log10 compound concentration (M): -8.33985, supplement / serum: 50μMThymidine, base medium: RPMI + dialysed FBS | 78.4 ± 12
log10 compound concentration (M): -8.33985, supplement / serum: No metabolite, base medium: RPMI + dialysed FBS | 86.2 ± 1.2
log10 compound concentration (M): -8.33985, supplement / serum: RPMI + Dialyzed FBS + 50μM Hypoxanthine, base medium: RPMI-1640 | 84.3 ± 9
log10 compound concentration (M): -8.33985, supplement / serum: RPMI + Dialyzed FBS, base medium: RPMI-1640 | 86.2 ± 1.2
log10 compound concentration (M): -8.33985, supplement / serum: RPMI + Normal FBS, base medium: RPMI-1640 | 92 ± 1.2
log10 compound concentration (M): -8.81697, supplement / serum: 50μM Hypoxanthine, base medium: RPMI + dialysed FBS | 83.9 ± 23
log10 compound concentration (M): -8.81697, supplement / serum: 50μM Thymidine + 50μM Hypoxanthine, base medium: RPMI + dialysed FBS | 69.4 ± 6.6
log10 compound concentration (M): -8.81697, supplement / serum: 50μMThymidine, base medium: RPMI + dialysed FBS | 77.4 ± 7.6
log10 compound concentration (M): -8.81697, supplement / serum: No metabolite, base medium: RPMI + dialysed FBS | 70.8 ± 2.4
log10 compound concentration (M): -8.81697, supplement / serum: RPMI + Dialyzed FBS + 50μM Hypoxanthine, base medium: RPMI-1640 | 83.9 ± 23
log10 compound concentration (M): -8.81697, supplement / serum: RPMI + Dialyzed FBS, base medium: RPMI-1640 | 70.8 ± 2.4
log10 compound concentration (M): -8.81697, supplement / serum: RPMI + Normal FBS, base medium: RPMI-1640 | 75.5 ± 4.8
log10 compound concentration (M): -9.29409, supplement / serum: 50μM Hypoxanthine, base medium: RPMI + dialysed FBS | 77.29 ± 0.34
log10 compound concentration (M): -9.29409, supplement / serum: 50μM Thymidine + 50μM Hypoxanthine, base medium: RPMI + dialysed FBS | 86.3 ± 14
log10 compound concentration (M): -9.29409, supplement / serum: 50μMThymidine, base medium: RPMI + dialysed FBS | 105 ± 6.9
log10 compound concentration (M): -9.29409, supplement / serum: No metabolite, base medium: RPMI + dialysed FBS | 84.9 ± 13
log10 compound concentration (M): -9.29409, supplement / serum: RPMI + Dialyzed FBS + 50μM Hypoxanthine, base medium: RPMI-1640 | 77.29 ± 0.34
log10 compound concentration (M): -9.29409, supplement / serum: RPMI + Dialyzed FBS, base medium: RPMI-1640 | 84.9 ± 13
log10 compound concentration (M): -9.29409, supplement / serum: RPMI + Normal FBS, base medium: RPMI-1640 | 77 ± 11
log10 compound concentration (M): -9.77121, supplement / serum: 50μM Hypoxanthine, base medium: RPMI + dialysed FBS | 85.8 ± 28
log10 compound concentration (M): -9.77121, supplement / serum: 50μM Thymidine + 50μM Hypoxanthine, base medium: RPMI + dialysed FBS | 86.4 ± 9.4
log10 compound concentration (M): -9.77121, supplement / serum: 50μMThymidine, base medium: RPMI + dialysed FBS | 84.3 ± 26
log10 compound concentration (M): -9.77121, supplement / serum: No metabolite, base medium: RPMI + dialysed FBS | 77 ± 17
log10 compound concentration (M): -9.77121, supplement / serum: RPMI + Dialyzed FBS + 50μM Hypoxanthine, base medium: RPMI-1640 | 85.8 ± 28
log10 compound concentration (M): -9.77121, supplement / serum: RPMI + Dialyzed FBS, base medium: RPMI-1640 | 77 ± 17
log10 compound concentration (M): -9.77121, supplement / serum: RPMI + Normal FBS, base medium: RPMI-1640 | 75.8 ± 12

O=c1[nH]cc(F)c(=O)[nH]1 [5-fluorouracil]
cell viability [%], [2]
Settings | 0.0001 M | 0.01 µM | 0.0278 µM | 0.0774 µM | 0.215 µM | 0.599 µM | 1.67 µM | 4.64 µM | 12.9 µM | 35.9 µM
metabolite supplement: 50uM thymidine | 4.77 ± 0.15 | 98.1 ± 2 | 96.2 ± 1.9 | 96.3 ± 2.9 | 97.9 ± 3.3 | 91.9 ± 1.7 | 63.7 ± 4.2 | 24.6 ± 4.1 | 11.8 ± 1.5 | 6.83 ± 0.49
metabolite supplement: 50uM thymidine + 250uM hypoxanthine | 5.93 ± 1.4 | 106 ± 8 | 104 ± 10 | 105 ± 9.9 | 106 ± 10 | 103 ± 13 | 84 ± 6.1 | 39.7 ± 12 | 15.7 ± 3.2 | 8.5 ± 1.8
metabolite supplement: 250uM hypoxanthine | 4.9 ± 0.72 | 100 ± 1.4 | 96.9 ± 4.5 | 97.3 ± 2.1 | 96.8 ± 2.1 | 90.6 ± 1.6 | 78.4 ± 4.6 | 33.2 ± 7.9 | 13 ± 2.3 | 7.4 ± 1.1
metabolite supplement: vehicle | 4.53 ± 0.59 | 102 ± 5.7 | 102 ± 6.5 | 101 ± 5.8 | 99.6 ± 3.5 | 94.6 ± 4.9 | 65 ± 3.9 | 22.9 ± 3.1 | 11.1 ± 1.5 | 6.67 ± 0.67
